For 11 compounds, Ki and EC50 results are on record in ChEMBL document CHEMBL1130220, “Synthesis of willardiine and 6-azawillardiine analogs: pharmacological characterization on cloned homomeric human AMPA and kainate receptor subtypes” (J Med Chem, 1997).

Experiment [1] addresses Glutamate receptor 1 (Homo sapiens, UniProt P42261). Description: biochemical.
A further experiment deals with Glutamate receptor 4 (Homo sapiens, UniProt P48058). Description: biochemical.
Another experiment concerns the target Glutamate receptor 2 (Homo sapiens, UniProt P42262). Description: biochemical.
The target in experiment [2] is Glutamate receptor 1 (Rattus norvegicus, UniProt P19490). The experiment can be described thus: Potency on Ionotropic glutamate receptor AMPA in hippocampal neurons. Format: functional, tissue-based, Hippocampus.
Sequence of Glutamate receptor 1 (Rattus norvegicus, UniProt P19490) (P19490 whole entry): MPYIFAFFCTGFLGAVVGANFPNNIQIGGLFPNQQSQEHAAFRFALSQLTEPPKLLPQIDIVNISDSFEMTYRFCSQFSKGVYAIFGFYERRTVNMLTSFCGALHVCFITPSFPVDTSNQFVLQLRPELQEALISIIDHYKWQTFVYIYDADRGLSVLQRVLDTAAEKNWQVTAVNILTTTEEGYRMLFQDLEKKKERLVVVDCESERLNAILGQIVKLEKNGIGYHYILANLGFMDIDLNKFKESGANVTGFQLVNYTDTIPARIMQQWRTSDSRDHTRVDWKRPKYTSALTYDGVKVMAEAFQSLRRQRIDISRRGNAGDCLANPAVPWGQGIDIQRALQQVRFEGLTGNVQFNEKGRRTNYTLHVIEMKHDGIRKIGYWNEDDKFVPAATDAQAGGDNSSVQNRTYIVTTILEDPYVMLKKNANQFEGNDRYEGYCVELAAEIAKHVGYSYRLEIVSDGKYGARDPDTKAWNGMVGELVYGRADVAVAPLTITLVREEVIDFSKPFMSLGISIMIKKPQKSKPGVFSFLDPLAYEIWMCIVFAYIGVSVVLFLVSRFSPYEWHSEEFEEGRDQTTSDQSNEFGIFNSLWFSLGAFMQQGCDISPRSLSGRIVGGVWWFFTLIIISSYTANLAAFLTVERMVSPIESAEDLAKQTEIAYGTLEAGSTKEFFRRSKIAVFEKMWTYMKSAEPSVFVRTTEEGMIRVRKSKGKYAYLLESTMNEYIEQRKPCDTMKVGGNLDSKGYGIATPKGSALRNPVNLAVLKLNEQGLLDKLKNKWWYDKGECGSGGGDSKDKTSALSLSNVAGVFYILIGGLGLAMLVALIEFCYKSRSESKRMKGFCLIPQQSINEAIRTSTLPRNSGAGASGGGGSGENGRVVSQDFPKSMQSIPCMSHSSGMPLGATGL
In experiment [3] the target is Glutamate receptor ionotropic, kainate 3 (Rattus norvegicus, UniProt P42264). Description: Potency on Ionotropic glutamate receptor kainate in dorsal root ganglion cells. The format is functional, cell-based.
Sequence of Glutamate receptor ionotropic, kainate 3 (P42264 whole entry): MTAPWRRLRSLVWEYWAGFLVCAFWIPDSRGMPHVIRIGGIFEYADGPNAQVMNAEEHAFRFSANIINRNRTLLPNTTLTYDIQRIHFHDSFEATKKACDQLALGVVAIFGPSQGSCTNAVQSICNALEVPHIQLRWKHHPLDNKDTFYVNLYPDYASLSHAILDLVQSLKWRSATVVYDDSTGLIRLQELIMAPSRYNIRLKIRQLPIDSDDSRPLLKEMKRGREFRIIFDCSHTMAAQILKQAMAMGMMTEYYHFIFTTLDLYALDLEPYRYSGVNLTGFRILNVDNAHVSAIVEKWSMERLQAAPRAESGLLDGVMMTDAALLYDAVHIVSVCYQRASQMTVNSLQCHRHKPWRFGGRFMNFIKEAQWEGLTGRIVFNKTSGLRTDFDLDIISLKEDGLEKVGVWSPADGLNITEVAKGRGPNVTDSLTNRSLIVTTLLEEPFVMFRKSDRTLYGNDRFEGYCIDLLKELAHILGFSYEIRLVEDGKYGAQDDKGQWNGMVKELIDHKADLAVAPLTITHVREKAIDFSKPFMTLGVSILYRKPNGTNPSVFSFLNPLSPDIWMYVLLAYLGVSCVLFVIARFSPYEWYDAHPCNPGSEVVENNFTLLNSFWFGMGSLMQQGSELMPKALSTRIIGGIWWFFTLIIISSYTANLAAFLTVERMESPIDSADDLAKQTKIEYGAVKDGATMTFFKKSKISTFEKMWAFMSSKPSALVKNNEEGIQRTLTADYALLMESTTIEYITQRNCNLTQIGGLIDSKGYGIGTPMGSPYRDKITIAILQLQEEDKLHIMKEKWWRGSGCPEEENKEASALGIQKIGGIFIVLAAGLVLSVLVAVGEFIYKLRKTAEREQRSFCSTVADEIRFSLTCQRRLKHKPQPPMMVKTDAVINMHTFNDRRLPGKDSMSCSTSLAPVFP

Sequence of Glutamate receptor 4 (P48058 whole entry): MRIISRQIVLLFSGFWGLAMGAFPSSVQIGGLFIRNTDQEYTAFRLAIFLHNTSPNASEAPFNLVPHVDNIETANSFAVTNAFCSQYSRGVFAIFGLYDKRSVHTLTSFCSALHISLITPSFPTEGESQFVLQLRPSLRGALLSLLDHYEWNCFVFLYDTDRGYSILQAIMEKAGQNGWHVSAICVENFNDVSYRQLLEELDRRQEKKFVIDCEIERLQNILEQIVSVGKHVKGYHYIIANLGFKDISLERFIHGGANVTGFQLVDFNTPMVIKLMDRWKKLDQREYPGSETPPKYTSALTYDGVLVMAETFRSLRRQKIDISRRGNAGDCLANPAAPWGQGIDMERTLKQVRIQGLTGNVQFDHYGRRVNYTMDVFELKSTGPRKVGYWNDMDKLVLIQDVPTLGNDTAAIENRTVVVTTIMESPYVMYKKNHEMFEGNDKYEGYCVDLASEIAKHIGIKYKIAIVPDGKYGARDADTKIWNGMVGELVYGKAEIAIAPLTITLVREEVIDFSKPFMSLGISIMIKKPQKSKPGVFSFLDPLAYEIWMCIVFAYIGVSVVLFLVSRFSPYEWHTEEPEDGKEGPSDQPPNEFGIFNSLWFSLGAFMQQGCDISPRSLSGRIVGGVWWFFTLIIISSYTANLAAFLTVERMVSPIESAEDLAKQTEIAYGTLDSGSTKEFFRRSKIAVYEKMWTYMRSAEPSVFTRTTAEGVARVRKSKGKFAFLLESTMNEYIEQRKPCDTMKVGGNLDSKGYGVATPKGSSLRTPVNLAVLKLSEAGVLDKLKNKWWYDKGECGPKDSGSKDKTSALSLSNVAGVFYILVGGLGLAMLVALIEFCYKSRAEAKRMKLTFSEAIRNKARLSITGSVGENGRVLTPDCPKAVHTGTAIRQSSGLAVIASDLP
Sequence of Glutamate receptor 2 (P42262 whole entry): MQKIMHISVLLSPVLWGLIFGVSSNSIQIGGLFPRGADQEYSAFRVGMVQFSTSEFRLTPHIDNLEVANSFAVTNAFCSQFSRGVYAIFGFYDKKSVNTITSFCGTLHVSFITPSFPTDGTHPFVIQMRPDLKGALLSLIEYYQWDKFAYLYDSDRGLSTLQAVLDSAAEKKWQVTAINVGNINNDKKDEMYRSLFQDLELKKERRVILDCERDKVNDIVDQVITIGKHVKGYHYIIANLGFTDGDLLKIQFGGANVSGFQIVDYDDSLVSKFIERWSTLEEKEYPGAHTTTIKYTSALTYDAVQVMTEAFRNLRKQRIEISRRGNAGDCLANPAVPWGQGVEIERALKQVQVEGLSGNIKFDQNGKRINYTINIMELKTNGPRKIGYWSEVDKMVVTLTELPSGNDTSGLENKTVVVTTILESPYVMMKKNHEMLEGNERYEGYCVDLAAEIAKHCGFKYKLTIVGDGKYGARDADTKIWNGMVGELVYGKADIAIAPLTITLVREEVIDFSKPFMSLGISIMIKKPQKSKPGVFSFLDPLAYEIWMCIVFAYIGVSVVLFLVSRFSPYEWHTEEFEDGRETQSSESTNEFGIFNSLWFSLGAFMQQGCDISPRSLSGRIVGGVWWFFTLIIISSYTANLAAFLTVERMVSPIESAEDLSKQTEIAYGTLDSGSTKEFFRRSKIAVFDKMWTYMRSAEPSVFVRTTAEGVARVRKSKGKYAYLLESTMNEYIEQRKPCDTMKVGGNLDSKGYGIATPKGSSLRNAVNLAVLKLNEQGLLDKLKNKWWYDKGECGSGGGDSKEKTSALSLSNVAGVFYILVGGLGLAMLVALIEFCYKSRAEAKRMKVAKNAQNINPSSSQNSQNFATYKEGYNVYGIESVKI
Sequence of Glutamate receptor 1 (Homo sapiens, UniProt P42261) (P42261 whole entry): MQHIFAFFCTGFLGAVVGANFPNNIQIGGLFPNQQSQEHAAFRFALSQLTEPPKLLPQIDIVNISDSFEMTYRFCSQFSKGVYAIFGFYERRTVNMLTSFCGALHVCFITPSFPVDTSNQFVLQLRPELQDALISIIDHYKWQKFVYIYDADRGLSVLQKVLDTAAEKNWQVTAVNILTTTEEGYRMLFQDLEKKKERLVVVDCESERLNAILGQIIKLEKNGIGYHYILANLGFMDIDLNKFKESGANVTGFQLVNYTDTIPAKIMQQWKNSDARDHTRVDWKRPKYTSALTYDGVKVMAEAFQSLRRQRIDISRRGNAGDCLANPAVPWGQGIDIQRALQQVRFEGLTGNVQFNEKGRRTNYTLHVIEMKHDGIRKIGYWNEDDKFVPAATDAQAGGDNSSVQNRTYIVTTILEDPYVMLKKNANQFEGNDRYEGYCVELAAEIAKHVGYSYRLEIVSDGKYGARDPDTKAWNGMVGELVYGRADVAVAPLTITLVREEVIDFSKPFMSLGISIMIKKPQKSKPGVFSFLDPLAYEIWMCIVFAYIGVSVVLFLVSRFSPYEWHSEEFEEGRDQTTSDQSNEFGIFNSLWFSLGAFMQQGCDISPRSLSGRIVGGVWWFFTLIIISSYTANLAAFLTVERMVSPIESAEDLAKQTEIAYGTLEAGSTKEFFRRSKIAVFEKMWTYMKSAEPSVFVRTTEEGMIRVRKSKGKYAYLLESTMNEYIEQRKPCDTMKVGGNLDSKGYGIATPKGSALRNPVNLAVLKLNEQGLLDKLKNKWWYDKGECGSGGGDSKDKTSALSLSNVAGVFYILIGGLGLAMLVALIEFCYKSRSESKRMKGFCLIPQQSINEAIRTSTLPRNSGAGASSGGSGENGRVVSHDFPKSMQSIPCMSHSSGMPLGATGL

As usually defined, the Ki is a measure of affinity in units of concentration, obtained from inhibition or displacement. Lower therefore signals higher affinity. On to `Cc1nn(C[C@H](N)C(=O)O)c(=O)[nH]c1=O`, for which the results for the Ki at Glutamate receptor 1 [1], at Glutamate receptor 4 and at Glutamate receptor 2 were 240 nM, 89 nM and 372 nM, respectively.

For `N[C@@H](Cn1cc([N+](=O)[O-])c(=O)[nH]c1=O)C(=O)O`, the inhibition constant (Ki) turned out to be 279 nM on Glutamate receptor 1 [1] and 207 nM on Glutamate receptor 4.

Take `N[C@@H](Cn1cc(Cl)c(=O)[nH]c1=O)C(=O)O`: the inhibitory constant (Ki) was 65 nM at Glutamate receptor 1 [1] and 451 nM at Glutamate receptor 4.

`N[C@@H](Cn1nc(I)c(=O)[nH]c1=O)C(=O)O`: the inhibition constant (Ki) at Glutamate receptor 1 [1] stood at 73.9 nM; on Glutamate receptor 4, 19.9 nM; on Glutamate receptor 2, 101 nM.

The EC50 is the midpoint of the concentration-response curve. The low end stands for greater potency, the high end for weaker potency. Turning to `N[C@@H](Cn1cc(I)c(=O)[nH]c1=O)C(=O)O`, the results for the EC50 (on Glutamate receptor 1 [2]; in experiment [3]) were 19200 nM and 140 nM, respectively. In addition, the figures for the Ki at Glutamate receptor 1 [1] and on Glutamate receptor 4 were 163 nM and 972 nM, respectively.

With `N[C@@H](Cn1ncc(=O)[nH]c1=O)C(=O)O`, the results for the Ki on Glutamate receptor 1 [1], at Glutamate receptor 4 and at Glutamate receptor 2 were 163 nM, 189 nM and 461 nM, respectively.

As for `N[C@@H](Cn1cc(F)c(=O)[nH]c1=O)C(=O)O`, the inhibition constant Ki on Glutamate receptor 1 [1] turned out to be 14.7 nM; on Glutamate receptor 4, 305 nM.

For the compound `N[C@@H](Cn1nc(Br)c(=O)[nH]c1=O)C(=O)O`, the Ki stood at 29 nM on Glutamate receptor 1 [1], 7.9 nM at Glutamate receptor 4 and 19.3 nM on Glutamate receptor 2.

As for `N[C@@H](Cn1nc(Cl)c(=O)[nH]c1=O)C(=O)O`, the Ki is 7.1 nM at Glutamate receptor 1 [1], 3.6 nM at Glutamate receptor 4 and 16.7 nM on Glutamate receptor 2.

With `N[C@@H](Cn1cc(Br)c(=O)[nH]c1=O)C(=O)O`, the Ki on Glutamate receptor 1 [1] was determined as 92 nM; at Glutamate receptor 4, 457 nM.

As for `N[C@@H](Cn1ccc(=O)[nH]c1=O)C(=O)O` [(S)-WILLARDIINE], the Ki was determined as 386 nM on Glutamate receptor 1 [1] and 8850 nM on Glutamate receptor 4.
